Patent US3992539A, “S-triazolo-[3,4-a]isoquinolines in treating inflammatory disorders” (Mallinckrodt, Inc., priority 1973, dated 1976)
Structures can show the parent of a compound that is named as a salt. Where two headings read alike, the source gives them in different places.

Experiments:
gastric secretion = assay: anti-secretory activity, pylorus-ligated fasting rats (Shay rat procedure); assay type: in vivo; conditions: for Anti-Secretory Activity (% Reduction of gastric secretion, ml./100 gm.): 50 mg./kg., fasting rats, 4 hours after pylorus ligation, subcutaneous (footnote), intraperitoneal; for anti-secretory activity rather than ulcerogenic properties (in words): rat, in vivo
Procedure: The anti-secretory properties of certain compounds of the invention was determined using the following procedure. The stomachs of fasting rats were ligated at the pylorus (Shay rat procedure) immediately followed by an intraperitoneal injection of 50 mg./kg. of each compound tested. Four hours later the animals were sacrificed, the stomachs removed and the total volume of fluid was measured.
*% Reduction of gastric secretion (ml./100 gm.) after subcutaneous
administration to fasting rats at 50 mg./kg.

[1] = system: carrageenin-induced pedal edema; assay: inhibition of carrageenin-induced pedal edema in rats; assay type: in vivo, rats (male Wistar); conditions: Rattus norvegicus
Procedure: The anti-inflammatory activity of a number of representative compounds of the invention was determined by measuring inhibition of carrageenin-induced pedal edema in rats. The procedure used was a modification of the method of Winter et al., Proc. Soc. Exptl. […] The device used for measurement of the paw volume was an adaptation of the water displacement procedure described by Adamkiewicz et al., Can. J. Biochem. Physiol. […] The compounds were studied for their effectiveness in inhibiting the edema caused by the intraplantar injection of 0.05 ml. of a sterile 1.0% solution of carrageenin. […] The compounds were administered orally one hour prior to the injection of the phlogistic substance (carrageenin) into the left hind paw of the rats. At peak swelling time (3 hours), the volume of edema was calculated by differential paw volumes.

[2] = U.S. Pat. No. 3,354,164; cited from earlier work
[3] = oral, one hour before carrageenin, edema at 3 hours, dose which reduced edema formation by 25% or more in 50% of the animals, read-out: Anti-Inflammatory Activity (ED50)
[4] = po, 3 h, read-out: Anti-Inflammatory Activity (ED50), known antiinflammatory agents
[5] = po, 3 h, typical ED50 values from the same test, read-out: Anti-Inflammatory Activity (ED50), known antiinflammatory agents

CCN(CC)CCNc1nnc2c3ccccc3ccn12 [3-(N,N-diethylaminoethylamino)-s-triazolo-[3,4-a]-isoquinoline]
Anti-Secretory Activity (% Reduction of gastric secretion, ml./100 gm.) (gastric secretion): 49%
anti-secretory activity rather than ulcerogenic properties (in words) (gastric secretion): exhibit anti-secretory activity rather than the ulcerogenic properties
ED50 [1, 3]: 172 mg/kg

CN1CCN(c2nnc3c4ccccc4c(Cl)cn23)CC1 [3-(N-methylpiperazino)-6-chloro-s-triazolo-[3,4-a]-isoquinoline]
ED50 [1, 3]: > 60 mg/kg

CC(=O)OCc1nnc2c3ccccc3ccn12 [3-Acetoxymethyl-s-triazolo-[3,4-a]-isoquinoline]
ED50 [1, 3]: ~100 mg/kg

COc1ccc2c(ccn3c(C)nnc23)c1 [3-Methyl-8-methoxy-s-triazolo-[3,4-a]-isoquinoline]
ED50 [1, 3]: 135 mg/kg

COc1ccc2c(c1)-c1nnc(C(F)(F)F)n1CC2.Cl [3-Trifluoromethyl-5,6-dihydro-9-methoxy-s-triazolo-[3,4-a]-isoquinoline Hydrochloride]
ED50 [1, 3]: 38 mg/kg

COC(=O)c1cn2c(C(F)(F)F)nnc2c2ccccc12 [3-Trifluoromethyl-6-carbomethoxy-s-triazolo-[3,4-a]-isoquinoline]
Anti-Secretory Activity (% Reduction of gastric secretion, ml./100 gm.) (gastric secretion): 6.4%
anti-secretory activity rather than ulcerogenic properties (in words) (gastric secretion): exhibit anti-secretory activity rather than the ulcerogenic properties

O=C(O)c1cn2c(C(F)(F)F)nnc2c2ccccc12 [3-Trifluoromethyl-6-carboxy-s-triazolo-[3,4-a]-isoquinoline,Potassium Salt]
ED50 [1, 3]: > 160 mg/kg

FC(F)(F)c1nnc2c3cc4c(cc3ccn12)OCO4 [3-Trifluoromethyl-8,9-methylenedioxy-s-triazolo-[3,4-a]-isoquinoline]
ED50 [1, 3]: 80 mg/kg

FC(F)(F)c1nnc2c3cc(Cl)ccc3ccn12 [3-Trifluoromethyl-9-chloro-s-triazolo-[3,4-a]-isoquinoline]
ED50 [1, 3]: ~160 mg/kg

COc1ccc2ccn3c(C(F)(F)F)nnc3c2c1 [3-Trifluoromethyl-9-methoxy-s-triazolo-[3,4-a]-isoquinoline]
ED50 [1, 3]: 39 mg/kg

Cc1ccc2ccn3c(C(F)(F)F)nnc3c2c1 [3-Trifluoromethyl-9-methyl-s-triazolo-[3,4-a]-isoquinoline]
Anti-Secretory Activity (% Reduction of gastric secretion, ml./100 gm.) (gastric secretion): 22%
anti-secretory activity rather than ulcerogenic properties (in words) (gastric secretion): exhibit anti-secretory activity rather than the ulcerogenic properties
ED50 [1, 3]: ~160 mg/kg

CC(C)Cc1nnc2c3ccccc3ccn12 [3-isobutyl-s-triazolo-[3,4-a]-isoquinoline]
Anti-Secretory Activity (% Reduction of gastric secretion, ml./100 gm.) (gastric secretion): 16%
anti-secretory activity rather than ulcerogenic properties (in words) (gastric secretion): exhibit anti-secretory activity rather than the ulcerogenic properties
ED50 [1, 3]: 130 mg/kg

Cc1nnc2c3cccc(Cl)c3ccn12.Cl [3-methyl-7-chloro-s-triazolo-[3,4-a]-isoquinoline hydrochloride]
ED50 [1, 3]: > 30 mg/kg

Br.Cc1nnc2c3cccc(C#N)c3ccn12 [3-methyl-7-cyano-s-triazolo-[3,4-a]-isoquinoline hydrobromide]
ED50 [1, 3]: < 100 mg/kg

COc1ccc2ccn3c(C)nnc3c2c1 [3-methyl-9-methoxy-s-triazolo-[3,4-a]-isoquinoline]
ED50 [1, 3]: 115 mg/kg

Cl.c1c2c(cc3c1OCO3)-c1nncn1CC2 [5,6-Dihydro-8,9-methylenedioxy-s-triazolo-[3,4-a]-isoquinoline, Hydrochloride]
ED50 [1, 3]: ~160 mg/kg

Cl.Cl.Clc1cccc2c1ccn1c(CN3CCOCC3)nnc21 [7-Chloro-3-morpholinomethyl-s-triazolo-[3,4-a]-isoquinoline (Dihydrochloride)]
ED50 [1, 3]: ~160 mg/kg

c1cn2cnnc2c2cc3c(cc12)OCO3 [8,9-Methylenedioxy-s-triazolo-[3,4-a]-isoquinoline]
Anti-Secretory Activity (% Reduction of gastric secretion, ml./100 gm.) (gastric secretion): 29.5%
anti-secretory activity rather than ulcerogenic properties (in words) (gastric secretion): exhibit anti-secretory activity rather than the ulcerogenic properties
ED50 [1, 3]: ~24 mg/kg

CC(=O)Oc1ccccc1C(=O)O [Aspirin, reference compound]
ED50 [1, 4]: 224 mg/kg

C[C@@H]1C[C@H]2[C@@H]3CCC4=CC(=O)C=C[C@]4(C)[C@@]3(F)[C@@H](O)C[C@]2(C)[C@@]1(O)C(=O)CO [Dexamethasone, reference compound]
ED50 [1, 4]: 0.18 mg/kg

CC(=O)OCC(=O)[C@@]1(O)CC[C@H]2[C@@H]3CCC4=CC(=O)CC[C@]4(C)[C@H]3[C@@H](O)C[C@@]21C [Hydrocortisone Acetate, reference compound]
ED50 [1, 5]: 26 mg/kg

COc1ccc2c(c1)c(CC(=O)O)c(C)n2C(=O)c1ccc(Cl)cc1 [Indomethacin, reference compound]
ED50 [1, 4]: 2.4 mg/kg

CCCCC1C(=O)N(c2ccccc2)N(c2ccccc2)C1=O [Phenylbutazone, reference compound]
ED50 [1, 5]: 30 mg/kg

c1ccc2c(c1)ccn1cnnc21 [s-triazolo-[3,4-a]-isoquinoline]
coronary vasodilator activity (in words) [2]: coronary vasodilators
